Source: US20150038545A1, “HYDROXYPHENYL PYRROLE COMPOUNDS CONTAINING AN HYDROXAMIC ACID AS HDAC INHIBITORS AND MEDICINAL APPLICATIONS THEREOF” (UNIVERSIDAD DEL PAÍS VASCO, priority 2011, published 2015)

Columns and labels:
Human HDAC4 = target: T1, Human HDAC4 (Homo sapiens, UniProt P56524); test: In vitro HDAC4 inhibition, fluorogenic peptide assay; format: biochemical; details: for IC50: read-out: IC50 (nM) of enzyme activity HDAC4
T1 construct: Amino acids 627-1085 with N-terminal GST tag, MW=75.2 kDa; GST (N); purchased BioMol, Hamburg, Germany
T1 sequence (P56524 627-1084 limits assumed): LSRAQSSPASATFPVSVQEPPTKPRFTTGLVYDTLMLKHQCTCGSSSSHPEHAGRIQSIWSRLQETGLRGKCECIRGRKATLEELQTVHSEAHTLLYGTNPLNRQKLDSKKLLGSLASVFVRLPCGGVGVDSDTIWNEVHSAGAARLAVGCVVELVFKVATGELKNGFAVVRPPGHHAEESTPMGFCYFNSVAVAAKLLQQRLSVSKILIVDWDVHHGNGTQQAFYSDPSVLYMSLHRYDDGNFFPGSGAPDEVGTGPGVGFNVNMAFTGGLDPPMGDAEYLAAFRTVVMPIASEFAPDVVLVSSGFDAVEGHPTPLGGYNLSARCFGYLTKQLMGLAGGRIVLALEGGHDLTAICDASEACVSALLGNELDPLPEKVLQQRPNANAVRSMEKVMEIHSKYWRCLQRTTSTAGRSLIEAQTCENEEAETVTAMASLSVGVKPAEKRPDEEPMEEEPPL
Experimental: All HDAC assays were performed using acetylated AMC-labeled peptide substrate: • Substrate for isoforms HDAC1, 2, 3, 4, 5, 6, 7, 9, 10, 11 and HeLa nuclear extract assays: Acetylated fluorogenic peptide from p53 residues 379-382 (RHKKAc) (BioMol. Cat. # KI-104). • Substrate for HDAC8 assays: Acetylated fluorogenic peptide from p53 residues 379-382 (RHKAcKAc) (BioMol. Cat. # KI-178).
Enzymes: • HDAC1 assay: 75 nM Human HDAC1 (GenBank Accession No. NM_004964): Full length with C-terminal GST tag, MW=79.9 kDa, expressed by baculovirus expression system in Sf9 cells (BioMol. Cat. # SE-456). • HDAC2 assay: 5 nM Human HDAC2 (GenBank Accession No. Q92769): Full length with C-terminal His tag, MW=60 kDa, expressed by baculovirus expression system in Sf9 cells (BioMol. Cat. # SE-500). • HDAC3 assay: 2.3 nM Human HDAC3/NcoR2 (GenBank Accession No. NM_003883 for HDAC3, GenBank Accession No.NM_006312 for NcoR2): Complex of human HDAC3, full length with C-terminal His tag, MW=49.7 kDa, and human NCOR2, N-terminal GST tag, MW=39 kDa, co-expressed in baculovirus expression system (BioMol. Cat. # SE-507). • HDAC4 assay: 266 nM Human HDAC4 (GenBank Accession No. NM_006037): Amino acids 627-1085 with N-terminal GST tag, MW=75.2 kDa, expressed in baculovirus expression system (BioMol, Hamburg, Germany). • HDAC5 assay: 588 nM Human HDAC5 (GenBank Accession No. NM_001015053): Full length with Nterminal GST tag, MW=150 kDa, expressed by baculovirus expression system in Sf9 cells (BioMol, Hamburg, Germany). • HDAC6 assay: 13 nM Human HDAC6 (GenBank Accession No. BC069243): Full length with N-terminal GST tag, MW=159 kDa, expressed by baculovirus expression system in Sf9 cells (BioMol. Cat. # SE-508). • HDAC7 assay: 962 nM Human HDAC7 (GenBank Accession No. AY302468): Amino acids 518-end with N-terminal GST tag, MW=78 kDa, expressed in baculovirus expression system (BioMol, Hamburg, Germany). • HDAC8 assay: 119 nM Human HDAC8 (GenBank Accession No. NM018486): Full length, MW=42 kDa, expressed in an E. coli expression system (BioMol. […]
The reactions were carried out in a 96-well microplate for fluorometry in a 50 μl reaction volume. […] The reaction was allowed to develop for 45 minutes at 30° C. with 5% CO2; then the fluorescent signal was measured with an excitation wavelength at 360 nm and an emission wavelength at 460 nm in a microplate-reading fluorometer (GeminiXS; Molecular Devices, Sunnyvale, Calif.). […] IC50 was calculated by fitting the experimental data to a dose-response curve. […]

HT-1080 = test: Cancer cell growth inhibition (CellTiter-Glo), HT-1080; format: cell-based; details: Homo sapiens; Fibrosarcoma, HT-1080, 72 h treatment
Experimental: (§1) Cell culture-based assays were used to evaluate the ability of compounds of the invention to inhibit cancer cell growth.
(§2) Cells were obtained from the American Type Culture Collection (ATCC). Cells were cultured at 37° C. with 5% CO2 in the appropriate growth medium (see table below), and harvested respectively during the logarithmic growth period and counted with hemocytometer. The cell viability was examined by trypan blue exclusion. Cell concentrations were adjusted to 5.56×10^4 cells/ml with respective medium.
(§3) Stock solutions of test compounds and positive drugs Doxorubicin (Zhejiang, Haizheng, China), Cisplatin (Nanjing Zhiyao, China) and Mitomycin (Zhejiang, Haizheng, China) were prepared in dimethyl sulphoxide (DMSO) or PBS at 20 mM.
(§4) In order to determine the IC50 for each compound, experiments were carried out in 96-well plates and the cell lines seeded at a density of 5,000 cells/well. […] All treatments were performed in triplicate. 10 μl of drug solution was added to each well and incubated for 72 hours. At the end of the incubation, 100 μl of the CellTiter-Glo Reagent were added to each well and the contents were mixed for 2 munites on an orbital shaker to induce cell lysis. The plate was incubated at room temperature for 10 minutes to stabilize luminiscent signal, and luminiscent was recorded. […] In order to calculate IC50 values, dose-responsive curves were fitted using nonlinear regression model with a sigmoidal dose response.

Hep3B = test: Cancer cell growth inhibition (CellTiter-Glo), Hep3B; format: cell-based, Human; details: Homo sapiens, Liver Cancer, 72 h treatment
Experimental: as §1, §2, §3, §4

MCG803 = test: Cancer cell growth inhibition (CellTiter-Glo), MCG803; format: cell-based, Human; details: Homo sapiens; Gastric Cancer, MCG803, 72 h treatment
Experimental: as §1, §2, §3, §4

BT474 = test: Cancer cell growth inhibition (CellTiter-Glo), BT474; format: cell-based; details: Homo sapiens, BT-474; Breast Cancer, BT474, 72 h treatment
Experimental: as §1, §2, §3, §4

PC-3 = test: Cancer cell growth inhibition (CellTiter-Glo), PC-3; format: cell-based, Human; details: Homo sapiens; Prostate Cancer, PC-3, 72 h treatment
Experimental: as §1, §2, §3, §4

Row | Structure (SMILES) | Selectivity against HDAC6 (IC50 HDACx/IC50 HDAC6) HDAC4 (Human HDAC4; IC50 HDAC4/IC50 HDAC6) | IC50 (Human HDAC4) [nM] | IC50 (HT-1080) [µM] | IC50 (Hep3B) [µM] | IC50 (MCG803) [µM] | IC50 (BT474) [µM] | IC50 (PC-3) [µM]
1 | COc1ccc(-c2cc(-c3ccccc3)[nH]c2C(=O)NCCCCCC(=O)NO)cc1 [Compound A, N-[6-(hydroxyamino)-6-oxohexyl]-3-(4-methoxyphenyl)-5-phenyl-1H-pyrrole-2-carboxamide, reference compound] | 91.9 | 1840 | – | – | – | – | –
2 | O=C(CCCCCNC(=O)c1[nH]c(-c2ccc(O)cc2)cc1-c1ccoc1)NO [Example 5, 3-(3-furyl)-N-(5-(hydroxycarbamoyl)pentyl)-5-(4-hydroxy-phenyl)-1H-pyrrole-2-carboxamide] | – | 143 | 3.12 | 1.01 | 2.61 | 0.66 | 25.8
3 | O=C(CCCCCNC(=O)c1[nH]c(-c2ccc(O)cc2)cc1-c1ccccc1)NO [Example 2, N-(6-(hydroxyamino)-6-oxohexyl)-5-(4-hydroxyphenyl)-3-phenyl-1H-pyrrole-2-carboxamide] | – | – | 3.24 | 1.6 | 3.08 | 3.49 | 26.9

More lines, now with the values ahead:

Row | Selectivity against HDAC6 (IC50 HDACx/IC50 HDAC6) HDAC4 (Human HDAC4; IC50 HDAC4/IC50 HDAC6) | IC50 (Human HDAC4) [nM] | IC50 (HT-1080) [µM] | IC50 (Hep3B) [µM] | IC50 (MCG803) [µM] | IC50 (BT474) [µM] | IC50 (PC-3) [µM] | Structure (SMILES)
4 | – | 499 | 3.1 | 0.89 | 2.82 | 1.02 | 26.8 | O=C(CCCCCNC(=O)c1[nH]c(-c2ccc(O)cc2)cc1-c1ccsc1)NO [Example 6, N-(5-(hydroxycarbamoyl)pentyl)-5-(4-hydroxyphenyl)-3-(3-thienyl)-1H-pyrrole-2-carboxamide]
5 | – | – | 3 | 1.61 | 1.11 | 2.71 | 17.9 | O=C(CCCCCNC(=O)c1[nH]c(-c2ccccc2)cc1-c1ccc(O)cc1)NO [Example 1, N-(6-(hydroxyamino)-6-oxohexyl)-3-(4-hydroxyphenyl)-5-phenyl-1H-pyrrole-2-carboxamide]
